# Values quoted from earlier work, collected in US20070065511A1, “Controlled delivery creatine formulations and method of using the same” (priority 2004, published 2007).
# Where two headings read alike, the source gives them in different places.
# Assays:
# [1] = ingestion of 20 to 30 g per day for several days
Structure (SMILES),"SC/fibre, time effect from baseline (satellite cell (SC); week 4 of supplementation and resistance training)","SC/fibre, time effect from baseline (satellite cell (SC); week 8 of supplementation and resistance training)",SC/fibre compared to baseline (satellite cell (SC); week 16),increase in human skeletal muscle total creatine content [1]
"CN(CC(=O)O)C(=N)N [CRE, creatine]",111%,93%,no difference,
CN(CC(=O)O)C(=N)N.O [creatine monohydrate],,,,greater than 20%
